# Article PMC8807399, “Synthesis, Characterization, and in vivo Evaluation of a Novel Potent Autotaxin-Inhibitor” (Frontiers in Pharmacology, 2022)
# How the values were obtained:
# total basal plasma LPA = assay: Plasma LPA profile in rat (PK/PD), basal LPA; assay type: in vivo
# Description: Plasma samples were collected in triplicates at 0, 1, 3, 6, and 24 h and were added to heparinated tubes and kept at 0°C until further processing. Sampling and immediate processing at 0°C is crucial for the measurements of basal levels, since at higher temperatures, LPA is produced rapidly according to the ATX activity in the sample. One aliquot was used to determine basal levels of LPAs 16:0, 18:0, 18:1, and 20:4 as well as exposure of 13 by LC-MS/MS. A detailed method for LPA analysis is described in the Supplementary Material Section 1.3. The other 2 aliquots were used to determine ATX activity by incubation of the sample at 37°C for 4 h, followed again by analysis of LPA levels in the same way as for the basal LPA levels. LPA profiles were analyzed using MS Excel (Microsoft Corporation).
# Therefore, modulation of total basal LPA was largely driven by modulation of LPA 20:4 (Figure 2A).
# Histamine H2 receptor = target: T1, Histamine H2 receptor (Homo sapiens, UniProt P25021); assay: Off-target screen Histamine H2; assay type: binding; conditions: 10 µM; single point, duplicates
# T1 construct: purchased Eurofins CEREP SA
# [1] = target: T2, Angiotensin II receptor 1 (Homo sapiens, UniProt P30556); assay: Off-target screen Angiotensin II receptor 1; assay type: binding; conditions: 10 µM; single point, duplicates
# T2 construct: purchased Eurofins CEREP SA
# MMP-1 = target: T3, MMP-1 (Homo sapiens, UniProt P03956); assay: Off-target screen MMP-1; assay type: biochemical; conditions: 10 µM; single point, duplicates
# T3 construct: purchased Eurofins CEREP SA
# CDK2 = target: T4, CDK2 (Homo sapiens, UniProt P24941); assay: Off-target screen CDK2; assay type: biochemical; conditions: 10 µM; single point, duplicates
# T4 construct: purchased Eurofins CEREP SA
# 5HT2B = target: T5, 5HT2B (Homo sapiens, UniProt P41595); assay: Off-target screen 5HT2B; assay type: binding; conditions: 10 µM; single point, duplicates
# T5 construct: purchased Eurofins CEREP SA
# ML3R = assay: Off-target screen ML3R; conditions: 10 µM; single point, duplicates
# MAO-A = target: T6, MAO-A (Homo sapiens, UniProt P21397); assay: Off-target screen MAO-A; assay type: biochemical; conditions: 10 µM; single point, duplicates
# T6 construct: purchased Eurofins CEREP SA
# HDAC4 = target: T7, HDAC4 (Homo sapiens, UniProt P56524); assay: Off-target screen HDAC4; assay type: biochemical; conditions: 10 µM; single point, duplicates
# T7 construct: purchased Eurofins CEREP SA
# Acetylcholinesterase = target: T8, Acetylcholinesterase (Homo sapiens, UniProt P22303); assay: Off-target screen Acetylcholinesterase; assay type: biochemical; conditions: 10 µM; single point, duplicates
# T8 construct: purchased Eurofins CEREP SA
# [2] = In vitro microsomal stability, mouse; assay type: in vitro ADME; conditions: mouse microsomes, 1 µM; value of 10 = low clearance, essentially below detection limit
# Description: Incubations of a test compound at a concentration of 1 µM with microsomes (0.5 mg/ml) from the appropriate species (human, mouse, or rat) plus cofactor NADPH were performed in 96-well plates at 37°C on a TECAN automated liquid handling system (Tecan Group Ltd., Männedorf, Switzerland). After pre-incubation of the test compound with the microsomes for 10 min, the enzymatic reaction was started by the addition of cofactors. Aliquots of the incubations are removed at 1, 3, 6, 9, 15, 25, 35, and 45 min and are then quenched with 1:3 (v/v) acetonitrile containing internal standards. Samples were then cooled and centrifuged before analysis of the supernatant by LC-MS/MS. Logarithmic Peak area ratios (test compound peak area/internal standard peak area) were plotted against incubation time and a linear fit made to the data with emphasis upon the initial rate of compound disappearance. The slope of the fit was then used to calculate the intrinsic clearance: Clint (µL/min/mg protein) = −slope (min-1) * 1,000/[protein concentration (mg/ml)].
# LPA3 receptor = target: T9, LPA3 receptor (Homo sapiens, UniProt Q9UBY5); assay: Off-target screen LPA3 receptor, antagonist mode; assay type: cell-based; conditions: 10 µM, single point, duplicates
# T9 construct: purchased Eurofins CEREP SA
# Histamine H1 receptor = target: T10, Histamine H1 receptor (Homo sapiens, UniProt P35367); assay: Off-target screen Histamine H1; assay type: binding; conditions: 10 µM; single point, duplicates
# T10 construct: purchased Eurofins CEREP SA
# Muscarinic receptor M2 = target: T11, Muscarinic receptor M2 (Homo sapiens, UniProt P08172); assay: Off-target screen Muscarinic M2; assay type: binding; conditions: 10 µM; single point, duplicates
# T11 construct: purchased Eurofins CEREP SA
# [3] = Lipophilicity (LogD, octanol/buffer); assay type: physicochemical; conditions: 1-octanol / 25 mM phosphate buffer; pH 7.4, octanol/25 mM phosphate buffer
# Description: The experiment started with the accurate coating of the hydrophobic layer (0.45 µm PVDF membranes), which was fixed on the bottom of each DIFI©-tube (Weidmann Medical Technology AG, Rapperswil, Switzerland). The coated membranes were then connected to a 96-well plate which has been prefilled with exactly 150 µl of the selected aqueous buffer solution (25 mM phosphate buffer, pH 7.4). The buffer solution contains already the compound of interest with a maximum starting concentration of 85 µM. To expand the measurement range down to logD = −0.5 and up to logD = +4, it is necessary to carry out the procedure at two different octanol/water ratios: One with an excess of octanol for hydrophilic compounds (logD < 1) and one with a low volume of octanol for the lipophilic compounds (logD > 1). Therefore, parts of the DIFI©-tubes were filled with 15 µl 1-octanol and another part with 1 µl 1-octanol. The resulting sandwich guarantees that the membrane was completely dipped in the buffer solution. The plate was then sealed and shaken for 12 h at room temperature (23°C). During this time, the substance is distributed between the layer, the octanol, and the buffer solution. After having reached a distribution equilibrium, the DIFI©-tubes were easily disassembled from the top of the 96-well plate, so that the remaining sample concentration in the aqueous phase could be analyzed by LC/MS.
# Muscarininc receptor M4 = target: T12, Muscarininc receptor M4 (Homo sapiens, UniProt P08173); assay: Off-target screen Muscarinic M4; assay type: binding; conditions: 10 µM; single point, duplicates
# T12 construct: purchased Eurofins CEREP SA
# S1P1 = target: T13, S1P1 (Homo sapiens, UniProt P21453); assay: Off-target screen S1P1, agonist mode; assay type: cell-based; conditions: 10 µM, single point, duplicates
# T13 construct: purchased Eurofins CEREP SA
# GSK-3A = target: T14, GSK-3A (Homo sapiens, UniProt P49840); assay: Off-target screen GSK-3A; assay type: biochemical; conditions: 10 µM; single point, duplicates
# T14 construct: purchased Eurofins CEREP SA
# HDAC3 = target: T15, HDAC3 (Homo sapiens, UniProt O15379); assay: Off-target screen HDAC3; assay type: biochemical; conditions: 10 µM; single point, duplicates
# T15 construct: purchased Eurofins CEREP SA
# kappa opioid receptor = target: T16, kappa opioid receptor (Rattus norvegicus, UniProt P34975); assay: Off-target screen kappa opioid receptor; assay type: binding; conditions: 10 µM; single point, duplicates
# T16 construct: purchased Eurofins CEREP SA
# Cyclooxygenase 2 = target: T17, Cyclooxygenase 2 (Homo sapiens, UniProt P35354); assay: Off-target screen Cyclooxygenase 2; assay type: biochemical; conditions: 10 µM; single point, duplicates
# T17 construct: purchased Eurofins CEREP SA
# T10 sequence (P35367 whole entry): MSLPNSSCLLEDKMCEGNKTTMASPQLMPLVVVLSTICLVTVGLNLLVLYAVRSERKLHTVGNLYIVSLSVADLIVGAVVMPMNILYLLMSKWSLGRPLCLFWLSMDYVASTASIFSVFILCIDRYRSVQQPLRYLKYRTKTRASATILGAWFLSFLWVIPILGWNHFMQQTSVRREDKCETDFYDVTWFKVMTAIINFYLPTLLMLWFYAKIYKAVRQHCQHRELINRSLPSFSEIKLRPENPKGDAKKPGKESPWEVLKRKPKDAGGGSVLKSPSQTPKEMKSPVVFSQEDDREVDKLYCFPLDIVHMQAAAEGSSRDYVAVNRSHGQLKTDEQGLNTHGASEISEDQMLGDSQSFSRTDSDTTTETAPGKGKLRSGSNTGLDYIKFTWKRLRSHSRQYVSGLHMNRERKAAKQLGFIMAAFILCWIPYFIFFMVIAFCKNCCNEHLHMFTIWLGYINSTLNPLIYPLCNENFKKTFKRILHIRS
# T2 sequence (P30556 whole entry): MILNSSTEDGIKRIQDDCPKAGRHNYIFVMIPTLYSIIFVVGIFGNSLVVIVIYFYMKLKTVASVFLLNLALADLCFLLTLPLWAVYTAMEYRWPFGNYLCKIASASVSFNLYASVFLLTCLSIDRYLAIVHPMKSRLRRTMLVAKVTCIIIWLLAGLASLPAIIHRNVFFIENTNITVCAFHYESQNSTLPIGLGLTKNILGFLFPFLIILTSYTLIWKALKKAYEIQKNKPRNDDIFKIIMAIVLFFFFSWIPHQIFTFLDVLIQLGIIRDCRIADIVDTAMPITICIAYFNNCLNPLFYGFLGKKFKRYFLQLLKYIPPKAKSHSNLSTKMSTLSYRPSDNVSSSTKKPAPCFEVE
# T11 sequence (P08172 whole entry): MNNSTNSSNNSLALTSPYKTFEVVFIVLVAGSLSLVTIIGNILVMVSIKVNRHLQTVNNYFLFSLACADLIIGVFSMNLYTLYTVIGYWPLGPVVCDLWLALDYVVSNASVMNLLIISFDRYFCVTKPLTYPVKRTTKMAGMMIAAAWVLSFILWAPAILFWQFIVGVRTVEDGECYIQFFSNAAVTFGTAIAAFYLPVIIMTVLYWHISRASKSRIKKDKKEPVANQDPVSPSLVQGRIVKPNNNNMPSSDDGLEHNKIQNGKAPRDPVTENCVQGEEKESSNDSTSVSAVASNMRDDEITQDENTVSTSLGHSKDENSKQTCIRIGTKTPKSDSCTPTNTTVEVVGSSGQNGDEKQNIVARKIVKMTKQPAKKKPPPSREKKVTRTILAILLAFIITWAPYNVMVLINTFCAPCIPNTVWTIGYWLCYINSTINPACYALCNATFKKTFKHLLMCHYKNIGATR
# T16 sequence (P34975 whole entry): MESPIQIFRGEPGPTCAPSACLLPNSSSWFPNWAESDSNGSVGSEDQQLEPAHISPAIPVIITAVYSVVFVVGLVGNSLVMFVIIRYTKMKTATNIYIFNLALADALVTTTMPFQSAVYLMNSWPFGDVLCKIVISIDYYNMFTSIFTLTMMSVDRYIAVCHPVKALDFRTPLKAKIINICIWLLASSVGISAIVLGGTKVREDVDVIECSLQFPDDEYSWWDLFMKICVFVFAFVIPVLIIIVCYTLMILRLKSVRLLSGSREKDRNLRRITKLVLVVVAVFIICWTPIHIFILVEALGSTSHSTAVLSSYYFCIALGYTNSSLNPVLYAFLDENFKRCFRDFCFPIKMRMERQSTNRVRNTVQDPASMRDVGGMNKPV
# T8 sequence (P22303 32-614): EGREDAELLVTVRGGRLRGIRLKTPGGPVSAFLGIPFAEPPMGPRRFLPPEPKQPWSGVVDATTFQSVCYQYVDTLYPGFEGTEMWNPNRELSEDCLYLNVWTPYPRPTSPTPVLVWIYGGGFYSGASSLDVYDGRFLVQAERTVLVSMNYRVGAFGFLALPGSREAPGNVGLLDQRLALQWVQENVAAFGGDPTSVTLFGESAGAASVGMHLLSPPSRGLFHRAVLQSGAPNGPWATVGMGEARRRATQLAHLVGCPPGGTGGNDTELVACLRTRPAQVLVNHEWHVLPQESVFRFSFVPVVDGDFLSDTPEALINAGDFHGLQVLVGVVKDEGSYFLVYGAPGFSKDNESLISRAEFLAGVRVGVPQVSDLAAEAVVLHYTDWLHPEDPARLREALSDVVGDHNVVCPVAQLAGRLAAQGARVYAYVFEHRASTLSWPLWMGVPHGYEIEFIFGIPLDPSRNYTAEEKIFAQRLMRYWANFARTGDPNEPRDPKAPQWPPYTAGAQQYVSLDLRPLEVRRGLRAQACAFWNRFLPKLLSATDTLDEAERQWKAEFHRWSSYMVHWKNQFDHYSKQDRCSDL
# T15 sequence (O15379 whole entry): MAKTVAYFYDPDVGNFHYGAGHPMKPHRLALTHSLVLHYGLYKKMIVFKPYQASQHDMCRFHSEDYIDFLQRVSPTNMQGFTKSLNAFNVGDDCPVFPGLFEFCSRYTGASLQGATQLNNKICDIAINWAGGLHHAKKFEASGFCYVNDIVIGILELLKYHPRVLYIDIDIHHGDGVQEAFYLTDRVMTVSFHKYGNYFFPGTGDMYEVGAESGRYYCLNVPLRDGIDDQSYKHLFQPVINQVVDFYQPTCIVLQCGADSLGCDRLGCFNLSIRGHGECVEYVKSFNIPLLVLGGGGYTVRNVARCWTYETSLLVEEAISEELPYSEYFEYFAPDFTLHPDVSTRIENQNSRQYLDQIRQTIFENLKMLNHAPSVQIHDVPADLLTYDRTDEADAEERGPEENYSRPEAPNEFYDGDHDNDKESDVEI
# T15 sequence (Q9Y618 395-489 partner limits assumed): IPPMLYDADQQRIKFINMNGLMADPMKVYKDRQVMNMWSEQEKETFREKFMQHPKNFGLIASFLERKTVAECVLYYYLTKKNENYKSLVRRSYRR
# T12 sequence (P08173 whole entry): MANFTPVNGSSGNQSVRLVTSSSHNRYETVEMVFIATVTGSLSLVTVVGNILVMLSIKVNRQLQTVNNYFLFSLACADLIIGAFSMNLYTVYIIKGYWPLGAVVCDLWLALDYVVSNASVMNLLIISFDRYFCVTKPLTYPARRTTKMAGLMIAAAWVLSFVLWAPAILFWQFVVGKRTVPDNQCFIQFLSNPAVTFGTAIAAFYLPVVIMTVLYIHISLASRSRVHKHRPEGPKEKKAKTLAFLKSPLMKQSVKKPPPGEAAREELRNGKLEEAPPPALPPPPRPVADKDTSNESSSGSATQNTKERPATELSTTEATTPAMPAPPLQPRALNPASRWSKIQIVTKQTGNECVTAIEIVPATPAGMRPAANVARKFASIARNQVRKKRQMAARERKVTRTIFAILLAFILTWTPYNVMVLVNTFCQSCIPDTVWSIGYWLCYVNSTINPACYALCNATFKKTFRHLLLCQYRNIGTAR
# T3 sequence (P03956 100-469): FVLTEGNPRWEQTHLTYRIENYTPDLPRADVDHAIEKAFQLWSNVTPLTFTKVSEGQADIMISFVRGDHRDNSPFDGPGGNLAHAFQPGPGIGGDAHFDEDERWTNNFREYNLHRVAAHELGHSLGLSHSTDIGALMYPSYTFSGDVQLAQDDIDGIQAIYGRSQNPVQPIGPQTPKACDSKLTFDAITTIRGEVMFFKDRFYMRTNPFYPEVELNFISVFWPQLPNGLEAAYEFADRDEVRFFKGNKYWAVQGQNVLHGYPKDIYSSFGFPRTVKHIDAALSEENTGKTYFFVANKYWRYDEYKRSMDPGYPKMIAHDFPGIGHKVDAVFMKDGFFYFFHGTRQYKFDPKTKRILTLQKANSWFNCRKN
# T7 sequence (P56524 whole entry): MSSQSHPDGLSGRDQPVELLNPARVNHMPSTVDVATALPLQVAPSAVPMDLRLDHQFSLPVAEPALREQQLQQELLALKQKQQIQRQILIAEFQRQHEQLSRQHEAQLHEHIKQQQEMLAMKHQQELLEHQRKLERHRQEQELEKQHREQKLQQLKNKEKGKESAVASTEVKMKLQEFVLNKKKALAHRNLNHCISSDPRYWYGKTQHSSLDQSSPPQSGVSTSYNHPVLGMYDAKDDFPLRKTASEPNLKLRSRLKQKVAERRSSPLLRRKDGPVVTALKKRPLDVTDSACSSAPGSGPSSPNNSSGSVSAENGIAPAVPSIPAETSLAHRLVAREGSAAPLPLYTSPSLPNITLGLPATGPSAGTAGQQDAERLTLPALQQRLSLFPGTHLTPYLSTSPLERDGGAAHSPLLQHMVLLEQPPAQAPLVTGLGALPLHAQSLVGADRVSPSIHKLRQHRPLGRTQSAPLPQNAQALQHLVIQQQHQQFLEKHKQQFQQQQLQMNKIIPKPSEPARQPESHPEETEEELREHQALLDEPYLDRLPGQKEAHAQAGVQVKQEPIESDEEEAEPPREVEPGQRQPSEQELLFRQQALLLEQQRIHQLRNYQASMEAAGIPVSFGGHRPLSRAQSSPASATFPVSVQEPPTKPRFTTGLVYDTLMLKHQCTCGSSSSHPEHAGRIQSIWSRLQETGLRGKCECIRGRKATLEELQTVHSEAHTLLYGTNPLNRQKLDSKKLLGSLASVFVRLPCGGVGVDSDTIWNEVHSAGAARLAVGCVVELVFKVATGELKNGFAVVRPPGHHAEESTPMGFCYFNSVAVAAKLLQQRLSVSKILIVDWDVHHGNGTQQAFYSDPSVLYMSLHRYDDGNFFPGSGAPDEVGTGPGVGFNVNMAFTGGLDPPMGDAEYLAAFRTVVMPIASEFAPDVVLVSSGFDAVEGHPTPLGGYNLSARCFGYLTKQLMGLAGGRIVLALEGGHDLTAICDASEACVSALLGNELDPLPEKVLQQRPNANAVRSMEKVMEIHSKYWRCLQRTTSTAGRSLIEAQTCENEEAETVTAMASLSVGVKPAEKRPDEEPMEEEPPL
compound,measurement,setting,value
"O=C(OCc1ccc(OC(F)(F)F)cc1)N1C[C@@H]2CN(C(=O)c3ccc4[nH]nnc4c3)C[C@H]2C1 [Compound 13, (3aS,6aS)-5-(1H-Benzotriazole-5-carbonyl)-hexahydro-pyrrolo[3,4-c]pyrrole-2-carboxylic acid 4-trifluoromethoxy-benzyl ester]",IC50,"total basal plasma LPA; Rattus norvegicus, free plasma concentration, male Wistar rats, 3, 10, 30 mg/kg po, sum of LPA 16:0, 18:0, 18:1, 20:4, read-out: IC50 for the lowering of total basal LPA",~3.2 ng/mL
same,Estimated average ATX inhibition,"total basal plasma LPA; rat, food admix 20 mg/kg, 2-weeks study at steady state, estimated from PK/PD relationship",> 75%
same,Histamine H2 receptor (h) [% inhib],Histamine H2 receptor,12 % inhib
same,Angiotensin II receptor 1 (h) [% inhib],[1],14 % inhib
same,MMP-1 (h) [% inhib],MMP-1,-9 % inhib
same,CDK2 (h) [% inhib],CDK2,0 % inhib
same,5HT2B (h) [% inhib],5HT2B,-3 % inhib
same,ML3R (h) [% inhib],ML3R,48 % inhib
same,MAO-A (h) [% inhib],MAO-A,-1 % inhib
same,HDAC4 (h) [% inhib],HDAC4,3 % inhib
same,Acetylcholinesterase (h) [% inhib],Acetylcholinesterase,-23 % inhib
same,Mic CL m,[2],10/10/10 µL/m/mg prot
same,"LPA3 receptor (h), antago. mode [% inhib]",LPA3 receptor,56 % inhib
same,Histamine H1 receptor (h) [% inhib],Histamine H1 receptor,5 % inhib
same,Muscarinic receptor M2 (h) [% inhib],Muscarinic receptor M2,-15 % inhib
same,logD at 12 h,[3],3.2
same,Muscarininc receptor M4 (h) [% inhib],Muscarininc receptor M4,-17 % inhib
same,"S1P1 (h), agonist mode [% pos ctrl]",S1P1,5 % pos ctrl
same,GSK-3A (h) [% inhib],GSK-3A,-11 % inhib
same,HDAC3 (h) [% inhib],HDAC3,1 % inhib
same,kappa opioid receptor (r) [% inhib],kappa opioid receptor,-1 % inhib
same,Cyclooxygenase 2 (h) [% inhib],Cyclooxygenase 2,1 % inhib
